{"source": "ChEMBL document CHEMBL1132211", "about": "“The role of waters in docking strategies with incremental flexibility for carbohydrate derivatives: heat-labile enterotoxin, a multivalent test case” (J Med Chem, 1999)", "data": [{"assay": "Inhibitory concentration against Escherichia coli heat-labile enterotoxin (LT) binding to ganglioside GD1b was determined by ELISA assay", "units": {"IC50": "µM"}, "values": [{"compound": "OC[C@H]1O[C@@H](S[C@@H]2O[C@H](CO)[C@H](O)[C@H](O)[C@H]2O)[C@H](O)[C@@H](O)[C@H]1O", "note": "[THIODIGALACTOSIDE]", "IC50": 4}, {"compound": "O=C(O)[C@H](O)[C@@H](O)[C@H](O)[C@H](O)CO[C@@H]1O[C@H](CO)[C@H](O)[C@H](O)[C@H]1O", "IC50": 7}, {"compound": "LACTOSE, ANHYDROUS", "IC50": 45}, {"compound": "O=[N+]([O-])c1cccc(O[C@@H]2O[C@H](CO)[C@H](O)[C@H](O)[C@H]2O)c1", "IC50": 0.6}, {"compound": "O=C[C@H](O)[C@@H](O)[C@@H](O)[C@H](O)CO", "note": "[GALACTOSE]", "IC50": 57}, {"compound": "OC[C@H]1O[C@@H](O[C@@H]2[C@@H](CO)O[C@](O)(CO)[C@H]2O)[C@H](O)[C@@H](O)[C@H]1O", "note": "[LACTULOSE]", "IC50": 15}]}]}
